Literature values as cited in US20190208766A1, “COMPOSITION FOR THE CONSERVATION/FIXATION OF BIOLOGICAL MATERIAL” (priority 2016, published 2019).

Tested on: airways
Details: in vivo

C=O [formaldehyde]
concentration causing sense of suffocation: greater than 10 ppm
exposure that can lead to pulmonary edema: greater than 20 ppm
